Measurements from patent US10519177B2, “Heterocyclic compounds and uses thereof” (Plexxikon Inc., priority 2013, dated 2019).
Like-named read-outs stand apart in the source and are kept apart here.

Columns and labels:
BRD4-BD12 (1-477) = BRD4-BD12 (1-477) (Homo sapiens (Human), UniProt O60885); experiment: Alphascreen binding assay BRD4-BD12; settings: BRD4(1 2) H4; read-out: Biochemical activity (IC50 μM) BRD4(1 2) H4
Protocol: Binding of compounds of formula (I) with bromodomain 2, 3 4 was assessed using Alphascreen binding assay. The inhibition of the interaction between bromodomain and its acetylated target protein (Filippakopoulos P et al. 2012) was measured quantitatively using recombinant BRD proteins, an acetylated Histone 4 peptide and AlphaScreen™ technology. In absence of inhibition the BRD protein bound to AlphaScreen™ nickel chelate acceptor beads can interact with the acetylated Histone 4 peptide which is immobilized by the AlphaScreen™ Streptavidin coated beads. This interaction brings donor and acceptor beads in proximity. The close proximity allows the singlet oxygen produced by laser excitation of the donor beads to reach the acceptor beads and generate a luminescence signal.
Recombinant human bromodomains containing the N-terminal bromodomain (BRD2-BD1 (71-194), BRD3-BD1 (24-144) and BRD4-BD1 (44-164)) or dual bromodomains (BRD4-BD12 (1-477), BRD4-BD12 (1-472)) were prepared and purified as described in protein expression and purification session. The peptide is human Histone H41-21K5AcK8AcK12AcK16Ac-Biotin (Anaspec CA, USA).
Protocol for BRD2, BRD3 and BRD4 assay: All components are prepared in buffer composed of 50 mM HEPES pH 7.5, 100 mM NaCl, 0.01% bovine serum albumin (“BSA”), 0.01% Triton X-100, 2 mM dithiothreitol (“DTT”). 7 μL of Bromodomain protein and 7 μL of peptide are added to wells containing 1 μL of various concentrations of test compounds of formula (I) or DMSO vehicle in an Alphaplate (PerkinElmer GA, USA) and incubated for 1 hour at room temperature. 4 μL donor and acceptor bead mixture is then added with final concentrations of 7.5 μg/ml. 30 minutes after bead addition, Alpha signal is read on the Envision spectrometer (λEx 680 nm, λEm 520-620 nm). Final concentrations of bromodomain proteins and peptide are as shown below.
All data was normalized to the mean of 16 high and 16 low control wells on each plate. A four parameter curve fit of the following formula was then applied: Y=a+(b−a)/(1+(x/c)^d) Where ‘a’ is the minimum, ‘b’ is the maximum, ‘c’ is the pIC50 and ‘d’ is the Hill slope. Protein Expression and Purification
Recombinant human bromodomains containing the N-terminal bromodomain (BRD2-BD1 (71-194), BRD3-BD1 (24-144) and BRD4-BD1 (44-164)) or dual bromodomains (BRD4-BD12 (1-477), BRD4-BD12 (1-472)) were expressed in E. coli cells (in a modified pET vector) with an N-terminal six-His tag and purified using a combination of both IMAC (Ni-affinity) and size exclusion chromatography steps.
Recombinant BRD proteins were expressed using the E. coli strain BL21-CodonPlus (DE3) (Agilent Technologies CA, USA). Cells were grown in Terrific Broth (TB) media to an OD600 of 1.2 at 37° C. at which temperature was reduced to 25° C., protein was induced with 1.0 mM ispropyl-β-D-thiogalactopyranoside (“IPTG”) for 12-18 hours and harvested by centrifugation at 8000×g for 20 minutes. Cells were re-suspended in 0.1M K2PO4 pH 8.0, 250 mM NaCl, 10% Glycerol, 0.75% NP-40, 25 mM Imidazole, 5 mM beta-mercaptoethanol (“BME”) with 0.2 mg/ml Lysosyme, 2.0 mM phenylmethanesulfonyl fluoride (“PMSF”), 25 μg/ml DNAse I, incubated on ice for 30 minutes and lyzed with a cell disruptor (MicroFluidics MA, USA). The lysate was clarified by centrifugation at 20,000×g for 2 hours. The protein was captured with Ni-NTA resin (Life Technologies, USA). Contaminating proteins were washed off with 25 mM Tris-HCl pH 8.3, 250 mM NaCl, 12% Glycerol and 50 mM Imidazole. Following 3× wash steps, protein was eluted step wise using a 50 mM HEPES pH 7.5, 500 mM NaCl and 400 mM Imidazole. The protein was further purified using Gel Filtration column 26/600 Superdex 200 (GE Biosciences NJ, USA) in 50 mM HEPES pH 7.5, 250 mM NaCl. The protein was aliquoted and flash-frozen in liquid Nitrogen.

MV-4-11 cells = experiment: Oncology cell growth assay MV-4-11 (CellTiter Glo); type: cell-based
Description: Published bromodomain inhibitors JQ1 and iBET 151 have shown activity in variety of cancer cells such leukemia and lymphoma, multiple myeloma cells, NUT midline carcinoma and glioblastoma cells (Dawson M A et al. 2011; Delmore J E 2011; Chen Z et al. 2013; Filippakopoulos P et al. 2010; Mertz J A et al. 2011; Ott C J et al. 2012). In this study, we test compounds in different cancer cell lines. MV-4-11 and MOLM-13 are AML cell lines harboring a MLL-AF4 and MLL-AF9 translocation, respectively. MM.1S is a multiple myeloma cell line. SK-N-AS, IMR-32 and SK-N-BE(2) are neuroblastoma cell lines. IMR-32 and SK-N-BE(2) cell lines harbor MYCN amplifications.
MV-4-11, MM.1S, IMR-32, SK-N-AS and SK-N-BE(2) were obtained from ATCC (IL, USA) and MOLM-13 were purchased from DSMZ (Braunschweig, German). Cells are cultured as recommended by their sources. For growth inhibition studies 3000 cells are seeded in wells of a 96-well plate in 75 μL of culture media. After several hours, growth media containing compounds of formula (I) are added to the wells. Compound at a maximal concentration of 5 mM was serially diluted 1:3 for a total of 8 point titration with DMSO as a control. A 1 μL aliquot of each dilution point is added to 249 μL growth media and 75 μL is added to each well containing cells, providing 10 μM compound at the maximum concentration point. The final concentration of DMSO in all wells is 0.2%. Cells are incubated for 72 hours, and 25 μL of CellTiter Glo Reagent (Promega GA, USA) is added to each well. Plates are shaken for approximately 10 minutes and chemiluminescent signal is read on Tecan microplate reader. The measured luminescence correlates directly with cell number.
All data is normalized to the mean of eight DMSO high control wells on each plate. A four parameter curve fit of the following formula was then applied: Y=a+(b−a)/(1+(x/c)^d) Where ‘a’ is the minimum, ‘b’ is the maximum, ‘c’ is the pIC50 and ‘d’ is the Hill slope. […] Myc Reporter Assay

bromodomain = experiment: at least one of the bromodomain cell assays of Example 57; type: cell-based; settings: read-out: IC50 in at least one of the bromodomain cell assays
[1] = Homo sapiens, MV4-11, 72 h; MV-4-11, 3d growth; read-out: Cell activity (IC50 μM) MV-4-11 3d-Growth
[2] = at least one of the bromodomain cell assays described in Example 57

SMILES | IC50 (BRD4-BD12 (1-477)) | IC50 (MV-4-11 cells; [1]) | other results
CC[C@@H](c1ccccn1)n1cc(-c2ccc(C)c(C(=O)O)c2)c2ncc(-c3c(C)noc3C)cc21 [P-1024, 5-[6-(3,5-dimethylisoxazol-4-yl)-1-[(1S)-1-(2-pyridyl)propyl]pyrrolo[3,2-b]pyridin-3-yl]-2-methyl-benzoic acid] | < 1 µM | < 1 µM | 
Cc1noc(C)c1-c1cnc2c(-c3ccc(C(=O)O)cc3)cn(Cc3ccncc3)c2c1 [P-0937, 4-[6-(3,5-dimethylisoxazol-4-yl)-1-(4-pyridylmethyl)pyrrolo[3,2-b]pyridin-3-yl]benzoic acid] | < 1 µM | < 1 µM | 
CC[C@@H](c1ccccn1)n1cc(-c2ccc(C(=O)O)cc2)c2ncc(-c3c(C)noc3C)cc21 [P-0967, 4-[6-(3,5-dimethylisoxazol-4-yl)-1-[(1S)-1-(2-pyridyl)propyl]pyrrolo[3,2-b]pyridin-3-yl]benzoic acid] | < 1 µM | < 1 µM | 
Cc1noc(C)c1-c1cnc2c(-c3ccc(C(=O)O)cc3)cn(C(c3ccccn3)C3CCCC3)c2c1 (stereo not drawn) [P-0995, 4-[1-[cyclopentyl(2-pyridyl)methyl]-6-(3,5-dimethylisoxazol-4-yl)pyrrolo[3,2-b]pyridin-3-yl]benzoic acid] | < 1 µM | < 1 µM | 
Cc1noc(C)c1-c1cnc2c(-c3ccc(C(=O)O)cc3)cn(C(c3ccccn3)C3CCC3)c2c1 (stereo not drawn) [P-1012, 4-[1-[cyclobutyl(2-pyridyl)methyl]-6-(3,5-dimethylisoxazol-4-yl)pyrrolo[3,2-b]pyridin-3-yl]benzoic acid] | < 1 µM | < 1 µM | 
CC[C@@H](c1ccccn1)n1cc(-c2ccc(F)c(C(=O)O)c2)c2ncc(-c3c(C)noc3C)cc21 [P-1023, 5-[6-(3,5-dimethylisoxazol-4-yl)-1-[(1S)-1-(2-pyridyl)propyl]pyrrolo[3,2-b]pyridin-3-yl]-2-fluoro-benzoic acid] | < 1 µM | < 1 µM | 
CNC(=O)c1ccc(-c2cn([C@@H](C)c3ccccn3)c3cc(-c4c(C)noc4C)cnc23)cc1 [P-0977, 4-[6-(3,5-dimethylisoxazol-4-yl)-1-[(1S)-1-(2-pyridyl)ethyl]pyrrolo[3,2-b]pyridin-3-yl]-N-methyl-benzamide] | < 1 µM | < 1 µM | 
COC(=O)c1ccc(-c2cn(Cc3cccc(C)n3)c3cc(-c4c(C)noc4C)cnc23)cc1 [P-0915, methyl 4-[6-(3,5-dimethylisoxazol-4-yl)-1-[(6-methyl-2-pyridyl)methyl]pyrrolo[3,2-b]pyridin-3-yl]benzoate] | < 1 µM | < 1 µM | 
COC(=O)Cc1ccc(-c2cn(C(c3ccccn3)C3CCC3)c3cc(-c4c(C)noc4C)cnc23)cc1 (stereo not drawn) [P-1013, methyl 2-[4-[1-[cyclobutyl(2-pyridyl)methyl]-6-(3,5-dimethylisoxazol-4-yl)pyrrolo[3,2-b]pyridin-3-yl]phenyl]acetate] | < 1 µM | < 1 µM | 
Cc1cccc(Cn2cc(I)c3ncc(-c4c(C)noc4C)cc32)n1 [P-0920, 4-[3-iodo-1-[(6-methyl-2-pyridyl)methyl]pyrrolo[3,2-b]pyridin-6-yl]-3,5-dimethyl-isoxazole] | < 1 µM | < 1 µM | 
Cc1noc(C)c1-c1cnc2c(I)cn(C(c3ccccc3)c3ccccn3)c2c1 (stereo not drawn) [P-0906, 4-[3-iodo-1-[phenyl(2-pyridyl)methyl]pyrrolo[3,2-b]pyridin-6-yl]-3,5-dimethyl-isoxazole] | < 1 µM | < 1 µM | 
[2H]c1c([2H])c([2H])c(C([2H])(n2cc(-c3ccc(C(=O)O)cc3)c3ncc(-c4c(C)noc4C)cc32)C([2H])([2H])[2H])c([2H])c1[2H] (stereo not drawn) [P-0607, 4-[6-(3,5-dimethylisoxazol-4-yl)-1-[1,2,2,2-tetradeuterio-1-(2,3,4,5,6-pentadeuteriophenyl)ethyl]pyrrolo[3,2-b]pyridin-3-yl]benzoic acid] |  | < 1 µM | IC50 (bromodomain; [2]): < 10 µM
Cc1noc(C)c1-c1cnc2c(-c3cnn(C)c3)cn(C(=O)C3CCC(F)(F)CC3)c2c1 [P-0208] |  |  | IC50 (bromodomain; [2]): < 10 µM; IC50 (MV-4-11 cells; MV-4-11 3d-Growth; read-out: Cell activity (IC50 μM) MV-4-11 3d-Growth): 1 to 10 µM
Cc1noc(C)c1-c1cnc2c(-c3ccc(C(F)F)cc3)cn(CC3CCC(F)(F)CC3)c2c1 [P-0608, 4-[1-[(4,4-difluorocyclohexyl)methyl]-3-[4-(difluoromethyl)phenyl]pyrrolo[3,2-b]pyridin-6-yl]-3,5-dimethyl-isoxazole] |  | < 1 µM | IC50 (bromodomain; [2]): < 10 µM
COc1ccc(-c2cnc3c(-c4cnn(C(F)F)c4)cn(CC4CCC(F)(F)CC4)c3c2)cn1 [P-0358, 1-[(4,4-difluorocyclohexyl)methyl]-3-[1-(difluoromethyl)pyrazol-4-yl]-6-(6-methoxy-3-pyridyl)pyrrolo[3,2-b]pyridine] |  |  | IC50 (bromodomain; [2]): < 10 µM; IC50 (MV-4-11 cells; Homo sapiens, MV4-11, 72 h; read-out: Cell activity (IC50 μM) MV-4-11 3d-Growth): 10 to 200 µM
COC(=O)c1ccc(-c2cn(Cc3ccccn3)c3cc(-c4c(C)noc4C)cnc23)cc1OC [P-0954, methyl 4-[6-(3,5-dimethylisoxazol-4-yl)-1-(2-pyridylmethyl)pyrrolo[3,2-b]pyridin-3-yl]-2-methoxy-benzoate] | < 1 µM |  | 
Cc1noc(C)c1-c1cnc2c(-c3ccc(C(=O)O)cc3)cn([C@H](C)c3ccccn3)c2c1 [P-0510, 4-[6-(3,5-dimethylisoxazol-4-yl)-1-[(1R)-1-(2-pyridyl)ethyl]pyrrolo[3,2-b]pyridin-3-yl]benzoic acid] |  |  | IC50 (bromodomain): < 10 µM; IC50 (MV-4-11 cells; Homo sapiens, MV4-11, 72 h, read-out: Cell activity (IC50 μM) MV-4-11 3d-Growth): < 1 µM
